Test results from EP0975634B1, “FUNGICIDAL TRIFLUOROPHENYL-TRIAZOLOPYRIMIDINES” (BASF AKTIENGESELLSCHAFT, priority 1997, dated 1998).
Converted amounts (≈) assume the structure as drawn. Where two headings read alike, the source gives them in different places.

Columns and labels:
Phytophthora infestans = assay: microbe, parasite or virus in culture; type: cell-based; settings: for MIC (Minimum Inhibitory Concentration) PHYTIN: total inhibition of mycelial growth, V8 nutrient solution, 6-12 days incubation at 18-25°C, visual inspection; for MIC: Phytophthora infestans, read-out: MIC (Minimum Inhibitory Concentration) PHYTIN
Pyrenophora teres = assay: Minimum Inhibitory Concentration, serial dilution test; type: cell-based; settings: for MIC: Pyrenophora teres, read-out: MIC (Minimum Inhibitory Concentration) PYRNTE
[1] = system: Magnaporthe grisea f. sp. Oryzae; assay: microbe, parasite or virus in culture; type: cell-based; settings: for MIC (Minimum Inhibitory Concentration) PYRIOR: total inhibition of mycelial growth, V8 nutrient solution, 6-12 days incubation at 18-25°C, visual inspection; for MIC: Pyricularia oryzae, read-out: MIC (Minimum Inhibitory Concentration) PYRIOR
Rhizoctonia solani = assay: Minimum Inhibitory Concentration, serial dilution test; type: cell-based; settings: for MIC: Rhizoctonia solani, read-out: MIC (Minimum Inhibitory Concentration) RHISZO
Leptosphaeria nodorum = assay: as above; type: cell-based; settings: for MIC: Parastagonospora nodorum, read-out: MIC (Minimum Inhibitory Concentration) LEPTNO
Botrytis cinerea = assay: microbe, parasite or virus in culture; type: cell-based; settings: for MIC: Botrytis cinerea, read-out: MIC (Minimum Inhibitory Concentration) BOTRCI
Altemaria solani = assay: organism not typed; type: cell-based; settings: for MIC: read-out: MIC (Minimum Inhibitory Concentration) ALTESO
Uncinula necator = assay: Control of powdery mildew on grapes, prophylactic greenhouse test; type: in vivo; settings: grape cultivar Müller-Thurgau, application 3 days before infection, evaluation 21 days after infection; for activity at 3.13 ppm / activity at 6.25 ppm / activity at 12.5 ppm / activity at 25 ppm: Erysiphe necator, read-out: % activity (ABBOTT formula)
[2] = total inhibition of mycelial growth, V8 nutrient solution, 6-12 days incubation at 18-25°C, visual inspection

Structure (SMILES) | MIC (Minimum Inhibitory Concentration) PHYTIN (Phytophthora infestans) | MIC (Minimum Inhibitory Concentration) PYRIOR [1] | MIC (Minimum Inhibitory Concentration) BOTRCI (Botrytis cinerea) | MIC (Minimum Inhibitory Concentration) ALTESO (Altemaria solani) | MIC (Pyrenophora teres; [2]) | MIC [1] | MIC (Botrytis cinerea) | MIC (Altemaria solani) | MIC (Leptosphaeria nodorum; [2]) | activity at 3.13 ppm (Uncinula necator; Concentration 3.13 ppm) | activity at 6.25 ppm (Uncinula necator; Concentration 6.25 ppm) | activity at 12.5 ppm (Uncinula necator; Concentration 12.50 ppm) | activity at 25 ppm (Uncinula necator; Concentration 25.00 ppm) | other results
CC(C)C(Nc1c(-c2c(F)cc(F)cc2F)c(Cl)nc2ncnn12)C(F)(F)F (stereo not shown) [Example 55, 5-chloro-7-[N-2-(3-methyl-1,1,1-trifluorobutyl)-amino]-6-(2,4,6-trifluorophenyl)-[1,2,4]triazolo[1,5-a]-pyrimidine] | 100000 µg/mL (≈ 236 mM) | 40 µg/mL (≈ 0.0944 mM) | 1560 µg/mL (≈ 3.68 mM) | 390 µg/mL (≈ 0.92 mM) | – | – | – | – | – | – | – | – | – | MIC (Minimum Inhibitory Concentration) PYRNTE (Pyrenophora teres; [2]): 6250 µg/mL (≈ 14.7 mM); MIC (Minimum Inhibitory Concentration) RHISZO (Rhizoctonia solani; [2]): 12500 µg/mL (≈ 29.5 mM); MIC (Minimum Inhibitory Concentration) LEPTNO (Leptosphaeria nodorum; [2]): 1560 µg/mL (≈ 3.68 mM)
Fc1cc(F)c(-c2c(Cl)nc3ncnn3c2NC(c2ccccc2)C(F)(F)F)c(F)c1 (stereo not shown) [Example 52, 5-chloro-7-[N-(1-phenyl-2,2,2-trifluoroethyl)-amino]-6-(2,4,6-trifluorophenyl)-[1,2,4]triazolo[1,5-a]pyrimidine] | – | – | – | – | 3130 µg/mL (≈ 6.84 mM) | 1560 µg/mL (≈ 3.41 mM) | 12500 µg/mL (≈ 27.3 mM) | 3130 µg/mL (≈ 6.84 mM) | – | – | – | – | – | –
OC1CCCN(c2c(-c3c(F)cc(F)cc3F)c(Cl)nc3ncnn23)C1 (stereo not shown) [Example 41, 5-chloro-7-(3-hydroxypiperidin-1-yl)-6-(2,4,6-trifluorophenyl)-[1,2,4]triazolo[1,5-a]-pyrimidine] | – | – | – | – | 25000 µg/mL (≈ 65.1 mM) | 12500 µg/mL (≈ 32.6 mM) | 100000 µg/mL (≈ 261 mM) | 6250 µg/mL (≈ 16.3 mM) | 50000 µg/mL (≈ 130 mM) | – | – | – | – | –
C[Si](C)(C)CN(CC(F)(F)F)c1c(-c2c(F)cc(F)cc2F)c(Cl)nc2ncnn12 [Example 40, 5-chloro-7-[N-(2.2,2-trifluoroethyl)-N-(trimethylsiiylmethyl)-amino]-6-(2.4,6-trifiuorophenyl)-[1,2,4]triazolo[1,5-a]pyrimidine] | 25000 µg/mL (≈ 53.4 mM) | 1560 µg/mL (≈ 3.33 mM) | 6250 µg/mL (≈ 13.4 mM) | 780 µg/mL (≈ 1.67 mM) | – | – | – | – | – | – | – | – | – | MIC (Minimum Inhibitory Concentration) PYRNTE (Pyrenophora teres): 25000 µg/mL (≈ 53.4 mM); MIC (Minimum Inhibitory Concentration) RHISZO (Rhizoctonia solani): 110000 µg/mL (≈ 235 mM); MIC (Minimum Inhibitory Concentration) LEPTNO (Leptosphaeria nodorum): 110000 µg/mL (≈ 235 mM)
CC1CCN(c2c(-c3c(F)cc(F)cc3F)c(Cl)nc3ncnn23)CC1 [Example 2, 5-chloro-7-(4-methylpiperidin-1-yl)-6-(2,4,6-trifluorophenyl)-[1,2,4]triazolo[1,5-a]pyrimidine] | – | – | – | – | 200 µg/mL (≈ 0.524 mM) | 40 µg/mL (≈ 0.105 mM) | 100 µg/mL (≈ 0.262 mM) | 40 µg/mL (≈ 0.105 mM) | 6250 µg/mL (≈ 16.4 mM) | 100% | 100% | 100% | 100% | MIC (Phytophthora infestans): 100000 µg/mL (≈ 262 mM)
CC(Nc1c(-c2c(F)cc(F)cc2F)c(Cl)nc2ncnn12)C(F)(F)F (stereo not shown) [Example 28, 5-chloro-7-[N-2-(1,1,1-trifluoropropyl)-amino]-6-(2,4,6-trifluorophenyl)-[1,2,4]triazolo[1,5-a]pyrimidine] | 110000 µg/mL (≈ 278 mM) | 780 µg/mL (≈ 1.97 mM) | 3130 µg/mL (≈ 7.91 mM) | 780 µg/mL (≈ 1.97 mM) | – | – | – | – | – | – | – | – | – | MIC (Minimum Inhibitory Concentration) PYRNTE (Pyrenophora teres; [2]): 6250 µg/mL (≈ 15.8 mM); MIC (Minimum Inhibitory Concentration) RHISZO (Rhizoctonia solani; [2]): 3130 µg/mL (≈ 7.91 mM); MIC (Minimum Inhibitory Concentration) LEPTNO (Leptosphaeria nodorum; [2]): 3130 µg/mL (≈ 7.91 mM); % activity (ABBOTT formula) (Uncinula necator; Concentration 3.13 ppm): 97%; % activity (ABBOTT formula) (Uncinula necator; Concentration 6.25 ppm): 100%; % activity (ABBOTT formula) (Uncinula necator; Concentration 12.50 ppm): 100%; % activity (ABBOTT formula) (Uncinula necator; Concentration 25.00 ppm): 100%
OC(c1ccc(Cl)cc1)(c1cncnc1)c1ccccc1Cl (stereo not shown) [Fenarimol, reference compound] | – | – | – | – | – | – | – | – | – | 31% | 75% | 95% | 99% | –
CN(CC(F)(F)F)c1c(-c2c(F)cc(F)cc2F)c(Cl)nc2ncnn12 [Example 27, 5-chloro-7-(N-methyl-N-2,2.2-trifluoroethylamino)-6-(2,4,6-trifluorophenyl)-[1,2,4]triazolo[1,5-a]-pyrimidine] | 110000 µg/mL (≈ 278 mM) | 100 µg/mL (≈ 0.253 mM) | 3130 µg/mL (≈ 7.91 mM) | 780 µg/mL (≈ 1.97 mM) | – | – | – | – | – | – | – | – | – | MIC (Minimum Inhibitory Concentration) PYRNTE (Pyrenophora teres; [2]): 12500 µg/mL (≈ 31.6 mM); MIC (Minimum Inhibitory Concentration) RHISZO (Rhizoctonia solani; [2]): 1560 µg/mL (≈ 3.94 mM); MIC (Minimum Inhibitory Concentration) LEPTNO (Leptosphaeria nodorum; [2]): 50000 µg/mL (≈ 126 mM); % activity (ABBOTT formula) (Uncinula necator; Concentration 3.13 ppm): 0%; % activity (ABBOTT formula) (Uncinula necator; Concentration 6.25 ppm): 0%; % activity (ABBOTT formula) (Uncinula necator; Concentration 12.50 ppm): 11%; % activity (ABBOTT formula) (Uncinula necator; Concentration 25.00 ppm): 17%
CC1CCN(c2c(-c3c(F)cccc3Cl)c(Cl)nc3ncnn23)CC1 [standard^1, 5-chloro-7-(4-methylpiperidin-1-yl)-6-(2-chloro-6-fluorophenyl)-[1,2,4]triazolo[1,5-a]pyrimidine, reference compound] | – | – | – | – | – | – | – | – | – | 31% | 42% | 44% | 73% | –
CC(C)CCN(C)c1c(-c2c(F)cc(F)cc2F)c(Cl)nc2ncnn12 [Example 54, 5-chloro-7-[N-(3-methylbutyl)-N-methylamino]-6-(2,4,6-trifluorophenyl)-[1,2,4]triazolo[1,5-a]pyrimidine] | – | – | – | – | 3130 µg/mL (≈ 8.16 mM) | 40 µg/mL (≈ 0.104 mM) | 3130 µg/mL (≈ 8.16 mM) | 780 µg/mL (≈ 2.03 mM) | 12500 µg/mL (≈ 32.6 mM) | – | – | – | – | –
Fc1cc(F)c(-c2c(Cl)nc3ncnn3c2NCC(F)(F)F)c(F)c1 [Example 12, 5-chloro-7-(N-2,2,2-trifluoroethylamino)-6-(2,4,6-trifluorophenyl)-[1,2,4]triazolo[1,5-a]pyrimidine] | – | – | – | – | 6250 µg/mL (≈ 16.4 mM) | 200 µg/mL (≈ 0.524 mM) | 1560 µg/mL (≈ 4.09 mM) | 1560 µg/mL (≈ 4.09 mM) | 6250 µg/mL (≈ 16.4 mM) | 97% | 100% | 100% | 100% | MIC (Phytophthora infestans): 25000 µg/mL (≈ 65.5 mM); MIC (Rhizoctonia solani; [2]): 6250 µg/mL (≈ 16.4 mM)
Fc1cc(F)c(-c2c(Cl)nc3ncnn3c2NC2CC3CCC2C3)c(F)c1 (stereo not shown) [Example 11, 5-chloro-7-(N-norborn-2-ylamino)-6-(2,4,6-trifluorophenyl)-[1,2,4]triazolo[1,5-a]pyrimidine] | – | – | – | – | – | – | – | – | – | 64% | 93% | 100% | 100% | –
CC(C)CN(CC(F)(F)F)c1c(-c2c(F)cc(F)cc2F)c(Cl)nc2ncnn12 [Example 26, 5-chloro-7-(N-2-methylpropyl-N-2,2,2-trifluoroethylamino)-6-(2,4,6-trifluorophenyl)-[1,2,4]triazolo[1,5-a]pyrimidine] | – | – | – | – | – | 40 µg/mL (≈ 0.0914 mM) | 200 µg/mL (≈ 0.457 mM) | 200 µg/mL (≈ 0.457 mM) | 390 µg/mL (≈ 0.891 mM) | 0% | 14% | 22% | 27% | MIC (Rhizoctonia solani; [2]): 3130 µg/mL (≈ 7.15 mM)
CCCC(Nc1c(-c2c(F)cc(F)cc2F)c(Cl)nc2ncnn12)C(C)C (stereo not shown) [Example 57, 5-chloro-7-[3-(2-methylhexyl)-amino]-6-(2,4,6-trifluorophenyl)-[1,2,4]triazolo[5-a]-pyrimidine] | 110000 µg/mL (≈ 276 mM) | 40 µg/mL (≈ 0.101 mM) | 390 µg/mL (≈ 0.98 mM) | 200 µg/mL (≈ 0.503 mM) | – | – | – | – | – | – | – | – | – | MIC (Minimum Inhibitory Concentration) PYRNTE (Pyrenophora teres; [2]): 3130 µg/mL (≈ 7.87 mM); MIC (Minimum Inhibitory Concentration) RHISZO (Rhizoctonia solani; [2]): 110000 µg/mL (≈ 276 mM); MIC (Minimum Inhibitory Concentration) LEPTNO (Leptosphaeria nodorum; [2]): 780 µg/mL (≈ 1.96 mM)
CCCC(Cn1cncn1)c1ccc(Cl)cc1Cl (stereo not shown) [Penconazole, reference compound] | – | – | – | – | – | – | – | – | – | 11% | 17% | 31% | 58% | –
